Source: ChEMBL document CHEMBL1201862, “PubChem BioAssay data set” (2004)
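All cell lines were grown in 96-well plates and treated with compound for 48 hours. At the GI50, growth is halved.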 Active and inactive are the calls of the source. No stated cut-off is given here; in the data, active = GI50 up to about 1.1 µM and inactive = higher.

Legend:
Assay in all cases: inhibition of tumour cell growth, NCI panel, 48 h
XF498 = tested on: XF498
LXFL 529 = tested on: LXFL 529
DMS-273 = tested on: DMS-273
SNB-78 = tested on: SNB-78
M19-MEL = tested on: M19-MEL
DMS-114 = tested on: DMS-114
HOP-18 = tested on: HOP-18
KM-20L2 = tested on: KM-20L2
RXF 631 = tested on: RXF 631

Measured: GI50

CC(=O)OCc1ncccc1C(OC(C)=O)OC(C)=O
inactive: XF498 > 100 µM | LXFL 529 > 100 µM | DMS-273 > 100 µM | SNB-78 > 100 µM | M19-MEL > 100 µM | DMS-114 > 100 µM | HOP-18 > 100 µM | KM-20L2 > 100 µM

CC/C=C/c1cc2c(c3[nH]ccc13)[C@@H](C)CC2C.CC/C=C/c1cc2cc[nH]c2c2c1C(C)C[C@@H]2C.CCc1cc2c(c3[nH]ccc13)[C@@H](C)CC2C (stereo partly specified)
inactive: LXFL 529 16.4 µM | DMS-273 15.4 µM | SNB-78 17.2 µM | M19-MEL 18.3 µM | DMS-114 16.8 µM | HOP-18 13.5 µM | KM-20L2 14.8 µM

COc1ccc2cc3n(c(=O)c2c1)CCc1c-3cc(OC)c(OC)c1OC
inactive: XF498 50.7 µM | LXFL 529 > 100 µM | DMS-273 > 100 µM | SNB-78 > 100 µM | M19-MEL > 100 µM | DMS-114 > 100 µM | HOP-18 > 100 µM | KM-20L2 > 100 µM

CC1CCC2[C@@H](C)COC3O[C@]4(C)CCC1C32OO4 (stereo partly specified)
inactive: LXFL 529 77.1 µM | DMS-273 > 100 µM | SNB-78 > 100 µM | DMS-114 > 100 µM | HOP-18 > 100 µM | KM-20L2 > 100 µM

CN(C)CCN1CCc2c([nH]c3ccccc23)C1c1cccnc1 (stereo unspecified)
inactive: DMS-273 > 100 µM | SNB-78 > 100 µM | M19-MEL > 100 µM | DMS-114 > 100 µM | HOP-18 > 100 µM | KM-20L2 > 100 µM

Nn1c(-c2ccccc2Cl)nc2ccccc2c1=O
inactive: XF498 > 100 µM | LXFL 529 > 100 µM | DMS-273 > 100 µM | SNB-78 > 100 µM | M19-MEL > 100 µM | RXF 631 > 100 µM | DMS-114 > 100 µM | HOP-18 44.8 µM | KM-20L2 > 100 µM

CC(C)=CCC/C(C)=C/Cc1c(O)ccc2c1[nH]c1cc(O)c(C)cc12
inactive: XF498 24.7 µM | LXFL 529 10.1 µM | DMS-273 11 µM | SNB-78 > 25 µM | M19-MEL 15.5 µM | DMS-114 13.8 µM | KM-20L2 13.4 µM

CCN(CCO)CCNc1ccc(C)c2sc3ccccc3c(=O)c12
inactive: XF498 3.31 µM | LXFL 529 2.77 µM | DMS-273 2.36 µM | SNB-78 7.05 µM | M19-MEL 2 µM | DMS-114 7.67 µM | HOP-18 11.9 µM | KM-20L2 2.59 µM

CCN(CC)CCCC(C)Nc1c2cc(OC)cc(C)c2nc2c(C)c(Cl)ccc12 (stereo unspecified)
inactive: LXFL 529 1.58 µM | DMS-273 1.71 µM | SNB-78 2.14 µM | M19-MEL 1.75 µM | RXF 631 1.79 µM | DMS-114 1.93 µM | HOP-18 1.56 µM | KM-20L2 1.86 µM

CCOC(=O)C(C)Sc1nnc(COc2ccccc2OC)n1-c1ccccc1 (stereo unspecified)
inactive: LXFL 529 28.8 µM | DMS-273 > 100 µM | SNB-78 > 100 µM | M19-MEL > 100 µM | DMS-114 14.1 µM | HOP-18 77.4 µM | KM-20L2 > 100 µM

Cc1ncc(CCl)c2c1OC(C)(C)OC2
inactive: XF498 78.2 µM | LXFL 529 > 100 µM | SNB-78 39.7 µM | M19-MEL 74 µM | RXF 631 30 µM | DMS-114 > 100 µM | HOP-18 21.1 µM | KM-20L2 > 100 µM

Cc1cc(=O)oc2c(C3=NN(C=O)C(c4ccccc4)C3)c(O)ccc12 (stereo unspecified)
inactive: XF498 18.7 µM | LXFL 529 > 100 µM | DMS-273 > 100 µM | SNB-78 24.3 µM | M19-MEL > 100 µM | RXF 631 25.2 µM | DMS-114 > 100 µM | HOP-18 > 100 µM | KM-20L2 > 100 µM
